In ChEMBL document CHEMBL4837183, “Antiproliferative Bufadienolides from the Bulbs of Drimia altissima” (2021):

Key:
Format in all cases: functional
SF-268 = assay: Growth inhibition of human SF-268 cells measured after 48 hrs by SRB assay
SF-295 = assay: Growth inhibition of human SF-295 cells measured after 48 hrs by SRB assay
SF-539 = assay: Growth inhibition of human SF-539 cells measured after 48 hrs by SRB assay
SNB-19 = assay: Growth inhibition of human SNB-19 cells measured after 48 hrs by SRB assay
SNB-75 = assay: Growth inhibition of human SNB-75 cells measured after 48 hrs by SRB assay
U-251 = assay: Growth inhibition of human U-251 cells measured after 48 hrs by SRB assay
A549 = assay: Growth inhibition of human A549 cells measured after 48 hrs by SRB assay
HOP-62 = assay: Growth inhibition of human HOP-62 cells measured after 48 hrs by SRB assay
HOP-92 = assay: Growth inhibition of human HOP-92 cells measured after 48 hrs by SRB assay
NCI-H226 = assay: Growth inhibition of human NCI-H226 cells measured after 48 hrs by SRB assay
NCI-H23 = assay: Growth inhibition of human NCI-H23 cells measured after 48 hrs by SRB assay
NCI-H322M = assay: Growth inhibition of human NCI-H322M cells measured after 48 hrs by SRB assay
NCI-H460 = assay: Growth inhibition of human NCI-H460 cells measured after 48 hrs by SRB assay
NCI-H522 = assay: Growth inhibition of human NCI-H522 cells measured after 48 hrs by SRB assay
PC-3 = assay: Growth inhibition of human PC-3 cells measured after 48 hrs by SRB assay
DU-145 = assay: Growth inhibition of human DU-145 cells measured after 48 hrs by SRB assay
IGROV-1 = assay: Growth inhibition of human IGROV-1 cells measured after 48 hrs by SRB assay
OVCAR-3 = assay: Growth inhibition of human OVCAR-3 cells measured after 48 hrs by SRB assay
OVCAR-5 = assay: Growth inhibition of human OVCAR-5 cells measured after 48 hrs by SRB assay
OVCAR-8 = assay: Growth inhibition of human OVCAR-8 cells measured after 48 hrs by SRB assay
NCI/ADR-RES = assay: Growth inhibition of human NCI/ADR-RES cells measured after 48 hrs by SRB assay
SK-OV-3 = assay: Growth inhibition of human SK-OV-3 cells measured after 48 hrs by SRB assay
786-0 = assay: Growth inhibition of human 786-0 cells measured after 48 hrs by SRB assay
A498 = assay: Growth inhibition of human A498 cells measured after 48 hrs by SRB assay
ACHN = assay: Growth inhibition of human ACHN cells measured after 48 hrs by SRB assay
CAKI-1 = assay: Growth inhibition of human CAKI-1 cells measured after 48 hrs by SRB assay
RXF 393 = assay: Growth inhibition of human RXF 393 cells measured after 48 hrs by SRB assay
SN12C = assay: Growth inhibition of human SN12C cells measured after 48 hrs by SRB assay
TK-10 = assay: Growth inhibition of human TK-10 cells measured after 48 hrs by SRB assay
UO-31 = assay: Growth inhibition of human UO-31 cells measured after 48 hrs by SRB assay
CCRF-CEM = assay: Growth inhibition of human CCRF-CEM cells measured after 48 hrs by SRB assay
HL-60 = assay: Growth inhibition of human HL-60 cells measured after 48 hrs by SRB assay
K562 = assay: Growth inhibition of human K562 cells measured after 48 hrs by SRB assay
MOLT-4 = assay: Growth inhibition of human MOLT-4 cells measured after 48 hrs by SRB assay
SR = assay: Growth inhibition of human SR cells measured after 48 hrs by SRB assay
COLO 205 = assay: Growth inhibition of human COLO 205 cells measured after 48 hrs by SRB assay
HCC 2998 = assay: Growth inhibition of human HCC 2998 cells measured after 48 hrs by SRB assay
HCT-116 = assay: Growth inhibition of human HCT-116 cells measured after 48 hrs by SRB assay
HCT-15 = assay: Growth inhibition of human HCT-15 cells measured after 48 hrs by SRB assay
HT-29 = assay: Growth inhibition of human HT-29 cells measured after 48 hrs by SRB assay
KM12 = assay: Growth inhibition of human KM12 cells measured after 48 hrs by SRB assay
SW-620 = assay: Growth inhibition of human SW-620 cells measured after 48 hrs by SRB assay
LOX IMVI = assay: Growth inhibition of human LOX IMVI cells measured after 48 hrs by SRB assay
Malme-3M = assay: Growth inhibition of human Malme-3M cells measured after 48 hrs by SRB assay
M14 = assay: Growth inhibition of human M14 cells measured after 48 hrs by SRB assay
MDA-MB-435 = assay: Growth inhibition of human MDA-MB-435 cells measured after 48 hrs by SRB assay
SK-MEL-2 = assay: Growth inhibition of human SK-MEL-2 cells measured after 48 hrs by SRB assay
SK-MEL-28 = assay: Growth inhibition of human SK-MEL-28 cells measured after 48 hrs by SRB assay
SK-MEL-5 = assay: Growth inhibition of human SK-MEL-5 cells measured after 48 hrs by SRB assay
UACC-257 = assay: Growth inhibition of human UACC-257 cells measured after 48 hrs by SRB assay
UACC-62 = assay: Growth inhibition of human UACC-62 cells measured after 48 hrs by SRB assay
MCF7 = assay: Growth inhibition of human MCF7 cells measured after 48 hrs by SRB assay
MDA-MB-231 = assay: Growth inhibition of human MDA-MB-231 cells measured after 48 hrs by SRB assay
Hs-578T = assay: Growth inhibition of human Hs-578T cells measured after 48 hrs by SRB assay
BT-549 = assay: Growth inhibition of human BT-549 cells measured after 48 hrs by SRB assay
T47D = assay: Growth inhibition of human T47D cells measured after 48 hrs by SRB assay
MDA-MB-468 = assay: Growth inhibition of human MDA-MB-468 cells measured after 48 hrs by SRB assay

## C[C@]12CC[C@H](O)C=C1CC[C@@H]1[C@@H]2[C@@H](O)C[C@]2(C)[C@@H](c3ccc(=O)oc3)CC[C@]12O
SF-268
  GI50: 538 nM
SF-295
  GI50: 660 nM
SF-539
  GI50: 577 nM
SNB-19
  GI50: 3860 nM
SNB-75
  GI50: 1170 nM
U-251
  GI50: 1280 nM
A549
  GI50: 353 nM
HOP-62
  GI50: 454 nM
HOP-92
  GI50: 2080 nM
NCI-H226
  GI50: 1760 nM
NCI-H23
  GI50: 664 nM
NCI-H322M
  GI50: 1230 nM
NCI-H460
  GI50: 365 nM
NCI-H522
  GI50: 377 nM
PC-3
  GI50: 1330 nM
DU-145
  GI50: 478 nM
IGROV-1
  GI50: 1820 nM
OVCAR-3
  GI50: 531 nM
OVCAR-5
  GI50: 2360 nM
OVCAR-8
  GI50: 780 nM
NCI/ADR-RES
  GI50: 657 nM
SK-OV-3
  GI50: 2670 nM
786-0
  GI50: 541 nM
A498
  GI50: 362 nM
ACHN
  GI50: 351 nM
CAKI-1
  GI50: 436 nM
RXF 393
  GI50: 298 nM
SN12C
  GI50: 468 nM
TK-10
  GI50: 750 nM
UO-31
  GI50: 653 nM
CCRF-CEM
  GI50: 588 nM
HL-60
  GI50: 563 nM
K562
  GI50: 1390 nM
MOLT-4
  GI50: 369 nM
SR
  GI50: 1100 nM
COLO 205
  GI50: 3400 nM
HCC 2998
  GI50: 4320 nM
HCT-116
  GI50: 399 nM
HCT-15
  GI50: 808 nM
HT-29
  GI50: 689 nM
KM12
  GI50: 3200 nM
SW-620
  GI50: 559 nM
LOX IMVI
  GI50: 1030 nM
Malme-3M
  GI50: 1260 nM
M14
  GI50: 2570 nM
MDA-MB-435
  GI50: 1800 nM
SK-MEL-2
  GI50: 2330 nM
SK-MEL-28
  GI50: 2970 nM
SK-MEL-5
  GI50: 703 nM
UACC-257
  GI50: 2630 nM
UACC-62
  GI50: 1760 nM
MCF7
  GI50: 473 nM
MDA-MB-231
  GI50: 5.42 µM
Hs-578T
  GI50: 337 nM
BT-549
  GI50: 371 nM
T47D
  GI50: 1540 nM
MDA-MB-468
  GI50: 3750 nM

## CCO[C@@H]1C=C2CC[C@@H]3[C@H]([C@@H](O)C[C@]4(C)[C@@H](c5ccc(=O)oc5)CC[C@]34O)[C@@]2(C)CC1
SF-268
  GI50: 58 nM
SF-295
  GI50: 61 nM
SF-539
  GI50: 66 nM
SNB-19
  GI50: 347 nM
SNB-75
  GI50: 187 nM
U-251
  GI50: 151 nM
A549
  GI50: 40 nM
HOP-62
  GI50: 56 nM
HOP-92
  GI50: 153 nM
NCI-H226
  GI50: 181 nM
NCI-H23
  GI50: 86 nM
NCI-H322M
  GI50: 121 nM
NCI-H460
  GI50: 39 nM
NCI-H522
  GI50: 35 nM
PC-3
  GI50: 145 nM
DU-145
  GI50: 52 nM
IGROV-1
  GI50: 138 nM
OVCAR-3
  GI50: 59 nM
OVCAR-5
  GI50: 280 nM
OVCAR-8
  GI50: 165 nM
NCI/ADR-RES
  GI50: 91 nM
SK-OV-3
  GI50: 338 nM
786-0
  GI50: 71 nM
A498
  GI50: 39 nM
ACHN
  GI50: 37 nM
CAKI-1
  GI50: 57 nM
RXF 393
  GI50: 25 nM
SN12C
  GI50: 46 nM
TK-10
  GI50: 94 nM
UO-31
  GI50: 54 nM
CCRF-CEM
  GI50: 54 nM
HL-60
  GI50: 120 nM
K562
  GI50: 129 nM
MOLT-4
  GI50: 42 nM
SR
  GI50: 124 nM
COLO 205
  GI50: 401 nM
HCC 2998
  GI50: 537 nM
HCT-116
  GI50: 39 nM
HCT-15
  GI50: 86 nM
HT-29
  GI50: 78 nM
KM12
  GI50: 349 nM
SW-620
  GI50: 63 nM
LOX IMVI
  GI50: 137 nM
Malme-3M
  GI50: 145 nM
M14
  GI50: 232 nM
MDA-MB-435
  GI50: 178 nM
SK-MEL-2
  GI50: 234 nM
SK-MEL-28
  GI50: 296 nM
SK-MEL-5
  GI50: 72 nM
UACC-257
  GI50: 268 nM
UACC-62
  GI50: 145 nM
MCF7
  GI50: 55 nM
MDA-MB-231
  GI50: 0.588 µM
Hs-578T
  GI50: 44 nM
BT-549
  GI50: 56 nM
T47D
  GI50: 255 nM
MDA-MB-468
  GI50: 501 nM
